Patent publication US10954214B2 (Janssen Pharmaceutica NV, priority 2016, dated 2021)

Legend:
[1] = molecular target: full-length MALT1 protein (Strep-MALT1(1-824)-His) (Homo sapiens (Human), UniProt Q9UDY8); assay: MALT1 Biochemical Protease Assay (Ac-LRSR-AMC substrate); details: 10 nM FL MALT1, 200 μM Ac-LRSR-AMC, 4 h at RT; read-out: MALT1_Biochemical activity (Ac-LRSR-amc) IC50
Experimental: The tetrapeptide LRSR is coupled to AMC (7-amino-4-methylcoumarin) and provides a quenched, fluorescent substrate for the MALT1 protease (SM Biochemicals). […] Test compound concentrations ranged from 30 μM to 0.5 nM using 11 dilution steps (1:3). Background signal was measured from control wells containing assay buffer without enzyme which functions as low control (LC). High control (HC) values were generated using the reaction with enzyme but no compound treatment. Compounds were pre-incubated with MALT1 enzyme for 50 minutes at RT. […] The reaction was subsequently incubated for 4 h at RT and fluorescence was measured.
LC=Median of the low control values
An estimate of the slope of the plot in terms of the Hill coefficient was also obtained. IC50 Calculation:
[formula] With • UB=upper bound • LB=lower bound Used in “Lexis Dose Response Curve Fitting” Version 1.0.

[2] = test system: IL6 secretion by TMD8 ABC-DLBCL cells; assay: Human IL6 Mesoscale assay (TMD-8); assay type: cell-based; details: Homo sapiens, TMD8; TMD-8 cells, 24 h
Experimental: (§1) NFKB signaling regulates the secretion of multiple cytokines, including IL6 and IL10. Secretion of the cytokines IL6 and IL10 by TMD8 or OCI-LY3 ABC-DLBCL cells was measured using a mesoscale assay. Inhibition of NFKB signaling by MALT1 or BTK inhibitors results in a decrease of IL6/10 secretion.
(§2) TMD8 or OCI-LY3 cells were propagated in RPMI-1640 (Sigma Aldrich) supplemented with 10% fetal bovine serum (HyClone), 1 mM sodium pyruvate (Invitrogen), 2 mM L-glutamine (Sigma Aldrich) and 1% PenStrep (Sigma Aldrich). Cell passage number should not exceed 30. Cells should be kept between 0.5-2.5 million cells per mL during culturing and cells should be supplemented every 2-3 days with fresh 50 μM beta-mercaptoenthanol. No beta-mercaptoethanol was used during the mesoscale assay.
(§3) For the Mesoscale assay, 100,000 TMD8 or OCI-LY3 cells were seeded per well into black-colored 96-well plates with clear bottom (Corning #3904) and test compounds were added in 9 dilution steps (1:2) ranging from 15 μM to 58.6 nM (final DMSO concentration 0.3%). DMSO control wells were used to determine the maximum signal (High Control (HC)). Treatment with the BTK inhibitor RN486 in a dose range from 30 nM to 131 pM (9 dilutions of 1:2) served as a positive control for NFKB pathway inhibition and was used to determine the maximum inhibition (Low Control (LC)). Compounds and cells were incubated for 24 h at 37° C. and 5% CO2 (assay volume is 150 μL). After 24 h of incubation 50 μL of the supernatant was transferred to a MSD plate (V-Plex Proinflammation Panel 1 (human) kit, Mesoscale (MSD)) and incubated for 2 h with vigorous shaking (600 rpm) at room temperature. Following incubation, plates were washed 3× with PBS+0.05% Tween-20 and 25 μL detection antibody solution (IL6 & IL10 antibodies in diluent 3 (MSD)) was added per well followed by 2 h of incubation with vigorous shaking (600 rpm) at room temperature. After 3× washes with PBS+0.05% Tween-20, plates were incubated with 150 μL 2× Read Buffer T and read on SECTOR imager.

[3] = test system: IL10 secretion by TMD8 ABC-DLBCL cells; assay: Human IL10 Mesoscale assay (TMD-8); assay type: cell-based; details: Homo sapiens, TMD8; TMD-8 cells, 24 h
Experimental: as §1, §2, §3

Chain of full-length MALT1 protein (Strep-MALT1(1-824)-His) (Q9UDY8 whole entry): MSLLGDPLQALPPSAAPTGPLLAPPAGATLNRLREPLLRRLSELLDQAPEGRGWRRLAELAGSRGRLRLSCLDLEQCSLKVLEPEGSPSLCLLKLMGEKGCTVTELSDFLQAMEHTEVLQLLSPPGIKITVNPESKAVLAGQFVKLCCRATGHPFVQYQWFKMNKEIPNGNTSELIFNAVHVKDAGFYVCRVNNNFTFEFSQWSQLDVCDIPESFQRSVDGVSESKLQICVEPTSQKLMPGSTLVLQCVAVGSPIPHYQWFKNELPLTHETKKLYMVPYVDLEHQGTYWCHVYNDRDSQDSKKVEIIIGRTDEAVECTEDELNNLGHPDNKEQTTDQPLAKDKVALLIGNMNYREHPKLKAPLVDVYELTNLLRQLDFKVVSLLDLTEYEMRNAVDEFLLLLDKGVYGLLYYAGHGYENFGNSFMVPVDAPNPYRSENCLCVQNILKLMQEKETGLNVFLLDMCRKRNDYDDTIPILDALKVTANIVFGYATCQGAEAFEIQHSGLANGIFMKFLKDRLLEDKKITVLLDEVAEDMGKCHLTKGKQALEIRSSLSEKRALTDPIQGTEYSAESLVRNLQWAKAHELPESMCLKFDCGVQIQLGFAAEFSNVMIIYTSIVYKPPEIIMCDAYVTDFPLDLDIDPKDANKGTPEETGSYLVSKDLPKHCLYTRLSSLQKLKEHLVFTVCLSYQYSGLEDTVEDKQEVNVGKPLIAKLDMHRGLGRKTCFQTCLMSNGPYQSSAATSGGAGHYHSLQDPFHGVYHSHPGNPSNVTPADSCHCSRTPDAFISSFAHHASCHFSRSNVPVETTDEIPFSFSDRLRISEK

| SMILES | IC50 [1] [nM] | IC50 [2] [nM] | IC50 [3] [nM] |
| --- | --- | --- | --- |
| CN1CCc2ccc(NC(=O)c3cnn(-c4cccc5ncccc45)c3C(F)(F)F)cc2C1=O [Cpd 212, N-(2-methyl-1-oxo-1,2,3,4-tetrahydroisoquinolin-7-yl)-1-(quinolin-5-yl)-5-(trifluoromethyl)-1H-pyrazole-4-carboxamide] | 11000 | 1020 | 513 |
| Cc1cn(-c2nc(C)c(NC(=O)c3cnn(-c4cccc5c(=O)[nH]ccc45)c3C(F)(F)F)cc2Cl)nn1 [Cpd 362, N-(5-chloro-2-methyl-6-(4-methyl-1H-1,2,3-triazol-1-yl)pyridin-3-yl)-1-(1-oxo-1,2-dihydroisoquinolin-5-yl)-5-(trifluoromethyl)-1H-pyrazole-4-carboxamide] | 138 | 3470 | 1180 |
| O=C(Nc1cnc(-n2nccn2)c(Cl)c1)c1cnn(-c2cncc3sc(C(F)F)cc23)c1C(F)(F)F [Cpd 399, N-(5-chloro-6-(2H-1,2,3-triazol-2-yl)pyridin-3-yl)-1-(2-(difluoromethyl)thieno[2,3-c]pyridin-4-yl)-5-(trifluoromethyl)-1H-pyrazole-4-carboxamide] | 316 | 52 | 49 |
| Cn1ncc2cc(NC(=O)c3cnn(-c4cccc5ncccc45)c3C(F)(F)F)cnc21 [Cpd 225, N-(1-methyl-1H-pyrazolo[3,4-b]pyridin-5-yl)-1-(quinolin-5-yl)-5-(trifluoromethyl)-1H-pyrazole-4-carboxamide] | 1230 | 407 | 794 |
| CN1CCN(c2ncc(NC(=O)c3cnn(-c4cccc5ncccc45)c3C(F)(F)F)cc2C#N)CC1 [Cpd 224, N-(5-cyano-6-(4-methylpiperazin-1-yl)pyridin-3-yl)-1-(quinolin-5-yl)-5-(trifluoromethyl)-1H-pyrazole-4-carboxamide] | 1660 | 575 | 832 |
| N#Cc1ncc(-n2ncc(C(=O)Nc3cnc(-n4nccn4)c(Cl)c3)c2C(F)(F)F)c2ccccc12 [Cpd 414, N-(5-chloro-6-(2H-1,2,3-triazol-2-yl)pyridin-3-yl)-1-(1-cyanoisoquinolin-4-yl)-5-(trifluoromethyl)-1H-pyrazole-4-carboxamide] | 19 | > 15100 | 955 |
| O=C1COc2ccc(NC(=O)c3cnn(-c4cccc5ncccc45)c3C(F)(F)F)cc2N1 [Cpd 217, N-(3-oxo-3,4-dihydro-2H-benzo[b][1,4]oxazin-6-yl)-1-(quinolin-5-yl)-5-(trifluoromethyl)-1H-pyrazole-4-carboxamide] | 4900 | 537 | 269 |
| Cn1ccc2ccc(NC(=O)c3cnn(-c4cccc5ncccc45)c3C(F)(F)F)cc2c1=O [Cpd 216, N-(2-methyl-1-oxo-1,2-dihydroisoquinolin-7-yl)-1-(quinolin-5-yl)-5-(trifluoromethyl)-1H-pyrazole-4-carboxamide] | 5370 | 912 | 339 |
| N#Cc1cc(NC(=O)c2cnn(-c3cccc4ncccc34)c2C(F)(F)F)cnc1-n1cccc1 [Cpd 280, N-(5-cyano-6-(1H-pyrrol-1-yl)pyridin-3-yl)-1-(quinolin-5-yl)-5-(trifluoromethyl)-1H-pyrazole-4-carboxamide] | 126 | 5500 | 2400 |
| O=C(Nc1cnc(-c2ncc[nH]2)c(Cl)c1)c1cnn(-c2cncc3ccccc23)c1C(F)(F)F [Cpd 104, N-(5-chloro-6-(1H-imidazol-2-yl)pyridin-3-yl)-1-(isoquinolin-4-yl)-5-(trifluoromethyl)-1H-pyrazole-4-carboxamide] | 204 | > 15000 | > 15000 |
| CC(=O)c1cc(-n2ncc(C(=O)Nc3cnc(-n4nccn4)c(Cl)c3)c2C(F)(F)F)c2ccccc2n1 [Cpd 375, 1-(2-acetylquinolin-4-yl)-N-(5-chloro-6-(2H-1,2,3-triazol-2-yl)pyridin-3-yl)-5-(trifluoromethyl)-1H-pyrazole-4-carboxamide] | 355 | 102 | 85 |
| N#Cc1cc(NC(=O)c2cnn(-c3cccc4nccnc34)c2C(F)(F)F)cnc1-n1nccn1 [Cpd 105, N-(5-Cyano-6-(2H-1,2,3-triazol-2-yl)pyridin-3-yl)-1-(quinoxalin-5-yl)-5-(trifluoromethyl)-1H-pyrazole-4-carboxamid] | 58 | 851 | 813 |
| N#Cc1cc(NC(=O)c2cnn(-c3nccc4occc34)c2C(F)(F)F)cnc1-n1nccn1 [Cpd 94, N-(5-cyano-6-(2H-1,2,3-triazol-2-yl)pyridin-3-yl)-1-(furo[3,2-c]pyridin-4-yl)-5-(trifluoromethyl)-1H-pyrazole-4-carboxamide] | 19 | 89 | 105 |
| N#Cc1cnnn1-c1ncc(NC(=O)c2cnn(-c3cccc4ncccc34)c2C(F)(F)F)cc1Cl [Cpd 227, N-(5-chloro-6-(5-cyano-1H-1,2,3-triazol-1-yl)pyridin-3-yl)-1-(quinolin-5-yl)-5-(trifluoromethyl)-1H-pyrazole-4-carboxamide] | 1150 | 6460 | 550 |
| O=C(Nc1cnc(-n2nccn2)c(Cl)c1)c1cnn(-c2c(F)ccc3nccn23)c1C(F)(F)F [Cpd 205, N-(5-chloro-6-(2H-1,2,3-triazol-2-yl)pyridin-3-yl)-1-(6-fluoroimidazo[1,2-a]pyridin-5-yl)-5-(trifluoromethyl)-1H-pyrazole-4-carboxamide] | 195 | > 15100 | 1900 |

Further lines, results first:

| IC50 [1] [nM] | IC50 [2] [nM] | IC50 [3] [nM] | SMILES |
| --- | --- | --- | --- |
| 288 | > 1510 | 380 | N#Cc1ccc2c(-n3ncc(C(=O)Nc4cnc(-n5nccn5)c(Cl)c4)c3C(F)(F)F)cccc2n1 [Cpd 413, N-(5-chloro-6-(2H-1,2,3-triazol-2-yl)pyridin-3-yl)-1-(2-cyanoquinolin-5-yl)-5-(trifluoromethyl)-1H-pyrazole-4-carboxamide] |
| 447 | 389 | 182 | CC(=O)c1nccc2c(-n3ncc(C(=O)Nc4cnc(-n5nccn5)c(Cl)c4)c3C(F)(F)F)cccc12 [Cpd 378, 1-(1-acetylisoquinolin-5-yl)-N-(5-chloro-6-(2H-1,2,3-triazol-2-yl)pyridin-3-yl)-5-(trifluoromethyl)-1H-pyrazole-4-carboxamide] |
| 229 | 589 | 316 | COC(=O)c1ncc(NC(=O)c2cnn(-c3cccc4ncccc34)c2C(F)(F)F)cc1Cl [Cpd 258, methyl 3-chloro-5-(1-(quinolin-5-yl)-5-(trifluoromethyl)-1H-pyrazole-4-carboxamido)picolinate] |
| 166 | > 1510 | 120 | Cn1nc(-n2ncc(C(=O)Nc3cnc(-n4nccn4)c(C#N)c3)c2C(F)(F)F)c2cccnc21 [Cpd 265, N-(5-cyano-6-(2H-1,2,3-triazol-2-yl)pyridin-3-yl)-1-(1-methyl-1H-pyrazolo[3,4-b]pyridin-3-yl)-5-(trifluoromethyl)-1H-pyrazole-4-carboxamide] |
| 135 | 339 | 112 | Cc1nc(-n2cccn2)c(Cl)cc1NC(=O)c1cnn(-c2cccc3c(=O)[nH]ccc23)c1C(F)(F)F [Cpd 170, N-(5-chloro-2-methyl-6-(1H-pyrazol-1-yl)pyridin-3-yl)-1-(1-oxo-1,2-dihydroisoquinolin-5-yl)-5-(trifluoromethyl)-1H-pyrazole-4-carboxamide] |
| 676 | 275 | 182 | N#Cc1cc(NC(=O)c2cnn(-c3cccc4ncccc34)c2C(F)(F)F)ccc1C(=O)O [Cpd 237, 2-cyano-4-(1-(quinolin-5-yl)-5-(trifluoromethyl)-1H-pyrazole-4-carboxamido)benzoic acid] |
